Target: T1, Human SGLT2 (hSGLT2) (Homo sapiens, UniProt P31639)
T1 construct: expressed in transfected cells
T1 sequence (P31639 1-672): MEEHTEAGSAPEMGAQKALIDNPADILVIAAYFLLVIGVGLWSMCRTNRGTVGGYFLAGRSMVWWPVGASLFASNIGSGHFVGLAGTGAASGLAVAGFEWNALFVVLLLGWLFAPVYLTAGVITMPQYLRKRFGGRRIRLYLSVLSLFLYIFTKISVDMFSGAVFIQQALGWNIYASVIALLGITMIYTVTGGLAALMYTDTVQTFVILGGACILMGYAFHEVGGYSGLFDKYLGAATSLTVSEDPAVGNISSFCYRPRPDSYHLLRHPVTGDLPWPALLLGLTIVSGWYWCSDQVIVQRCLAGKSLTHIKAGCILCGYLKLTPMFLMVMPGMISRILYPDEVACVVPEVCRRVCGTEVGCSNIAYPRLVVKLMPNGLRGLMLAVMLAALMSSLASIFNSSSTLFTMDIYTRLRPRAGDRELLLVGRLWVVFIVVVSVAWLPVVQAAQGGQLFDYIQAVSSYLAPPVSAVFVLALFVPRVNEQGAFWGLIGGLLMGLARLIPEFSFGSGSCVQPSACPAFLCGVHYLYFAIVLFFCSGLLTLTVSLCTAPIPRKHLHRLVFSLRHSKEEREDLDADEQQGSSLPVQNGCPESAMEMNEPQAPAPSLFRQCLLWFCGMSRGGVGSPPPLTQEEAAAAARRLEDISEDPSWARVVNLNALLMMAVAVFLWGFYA
Test: Sodium-dependent glucose transport (14C-AMG uptake) assay in CHO cells stably expressing hSGLT2
Type: cell-based
Conditions: CHO cells expressing hSGLT2, 14C-AMG uptake, 37° C. for 2 h; single determinations; read-out: hSGLT2 Inhibitory Activity IC50
In short: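 Uptake of 14C-α-methyl-D-glucopyranoside (8 μM labeled, 1 mM unlabeled, NaCl buffer pH 7.4) measured over 2 h at 37 °C with inhibitor in hSGLT2-transfected CHO cells after 10 min choline-buffer pretreatment. Radioactivity by liquid scintillation; IC50 from nonlinear regression.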

Row | SMILES | IC50 [nM]
1 | CCOc1cc(Cl)c(Cc2ncc(-c3ccco3)s2)cc1[C@@H]1O[C@H](CO)[C@@H](O)[C@H](O)[C@H]1O [Example 77, (2S,3R,4R,5S,6R)-2-(4-Chloro-2-ethoxy-5-((5-(furan-2-yl)thiazol-2-yl)methyl)phenyl)-6-(hydroxymethyl)tetrahydro-2H-pyran-3,4,5-triol] | 3.98
2 | CCc1cnc(Cc2cc([C@@H]3O[C@H](CO)[C@@H](O)[C@H](O)[C@H]3O)cc3ccccc23)s1 [Example 105, (2S,3R,4R,5S,6R)-2-(4-((5-Ethylthiazol-2-yl)methyl)naphthalen-2-yl)-6-(hydroxymethyl)-tetrahydro-2H-pyran-3,4,5-triol] | 243
3 | OC[C@H]1O[C@@H](c2ccc(Cl)c(Cc3ncc(-c4cccs4)s3)c2)[C@H](O)[C@@H](O)[C@@H]1O [Example 7, (2S,3R,4R,5S,6R)-2-(4-Chloro-3-((5-(thiophen-2-yl)thiazol-2-yl)methyl)phenyl)-6-(hydroxymethyl)tetrahydro-2H-pyran-3,4,5-triol] | 3.2
4 | OC[C@H]1O[C@@H](c2ccc(Cl)c(Cc3cnc(-c4ccno4)s3)c2)[C@H](O)[C@@H](O)[C@@H]1O [Example 192, (2S,3R,4R,5S,6R)-2-(4-Chloro-3-((2-(isoxazol-5-yl)thiazol-5-yl)methyl)phenyl)-6-(hydroxymethyl)tetrahydro-2H-pyran-3,4,5-triol] | 20.2
5 | OC[C@H]1O[C@@H](c2ccc(Cl)c(Cc3cnc(-c4ccc(F)cc4)s3)c2)[C@H](O)[C@@H](O)[C@@H]1O [Example 194, (2S,3R,4R,5S,6R)-2-(4-Chloro-3-((2-(4-fluorophenyl)thiazol-5-yl)methyl)phenyl)-6-(hydroxymethyl)tetrahydro-2H-pyran-3,4,5-triol] | 6.39
6 | OC[C@H]1O[C@@H](c2ccc(F)c(Cc3ncc(-c4ccccc4)s3)c2)[C@H](O)[C@@H](O)[C@@H]1O [Example 44, (2S,3R,4R,5S,6R)-2-(4-Fluoro-3-((5-phenylthiazol-2-yl)methyl)phenyl)-6-(hydroxymethyl)tetralrydro-2H-pyran-3,4,5-triol] | 30.8
7 | CCCCCCCc1cnc(Cc2cc([C@@H]3O[C@H](CO)[C@@H](O)[C@H](O)[C@H]3O)c3ccccc3c2O)s1 [Example 127, (2S,3R,4R,5S,6R)-2-(3-((5-Heptylthiazol-2-yl)methyl)-4-hydroxynaphthalen-1-yl)-6-(hydroxymethyl)-tetrahydro-2H-pyran-3,4,5-triol] | 32.8
8 | OC[C@H]1O[C@@H](c2cc(Cc3ncc(-c4ccco4)s3)c(Cl)cc2O)[C@H](O)[C@@H](O)[C@@H]1O [Example 112, (2S,3R,4R,5S,6R)-2-(4-Chloro-5-((5-(furan-2-yl)thiazol-2-yl)methyl)-2-hydroxyphenyl)-6-(hydroxymethyl)-tetrahydro-2H-pyran-3,4,5-triol] | 0.797
9 | CCOc1cnc(Cc2cc([C@@H]3O[C@H](CO)[C@@H](O)[C@H](O)[C@H]3O)c3ccccc3c2OC)s1 [Example 103, (2S,3R,4R,5S,6R)-2-(3-((5-Ethoxythiazol-2-yl)methyl)-4-methoxynaphthalen-1-yl)-6-(hydroxymethyl)-tetrahydro-2H-pyran-3,4,5-triol] | 51.8
10 | O[C@@H]1[C@@H](O)[C@H](c2ccc(Cl)c(Cc3ncc(-c4ccco4)s3)c2)O[C@H](CF)[C@H]1O [Example 145, (2S,3R,4R,5S,6S)-2-(4-Chloro-3-((5-(furan-2-yl)thiazol-2-yl)methyl)phenyl)-6-(fluoromethyl)-tetrahydro-2H-pyran-3,4,5-triol] | 10.6
11 | OC[C@H]1O[C@@H](n2cc(Cc3ncc(-c4cccs4)s3)c3ccccc32)[C@H](O)[C@@H](O)[C@@H]1O [Example 131, (2R,3S,4S,5R,6R)-2-(Hydroxymethyl)-6-(3-((5-(thiophen-2-yl)thiazol-2-yl)methyl)-1H-indol-1-yl)tetrahydro-2H-pyran-3,4,5-triol] | 13.8

The remaining molecules from weak to strong by IC50, led by results:

Row | IC50 [nM] | SMILES
12 | 116 | CCOc1cnc(Cc2cc([C@@H]3O[C@H](CO)[C@@H](O)[C@H](O)[C@H]3O)c3ccccc3c2O)s1 [Example 128, (2S,3R,4R,5S,6R)-2-(3-((5-Ethoxythiazol-2-yl)methyl)-4-hydroxynaphthalen-1-yl)-6-(hydroxymethyl)-tetrahydro-2H-pyran-3,4,5-triol]
13 | 54.8 | OC[C@H]1O[C@@H](c2ccc(C3CC3)c(Cc3ncc(-c4ccco4)s3)c2)[C@H](O)[C@@H](O)[C@@H]1O [Example 110, (2S,3R,4R,5S,6R)-2-(4-Cyclopropyl-3-((5-(furan-2-yl)thiazol-2-yl)methyl)phenyl)-6-(hydroxymethyl)-tetrahydro-2H-pyran-3,4,5-triol]
14 | 25.6 | Cc1ccc([C@@H]2O[C@H](CO)[C@@H](O)[C@H](O)[C@H]2O)cc1Cc1ncc(-c2ccc(Cl)cc2)s1 [Example 38, (2S,3R,4R,5S,6R)-2-(3-((5-(4-Chlorophenyl)thiazol-2-yl)methyl)-4-methylphenyl)-6-(hydroxymethyl)tetrahydro-2H-pyran-3,4,5-triol]
15 | 24 | CCOC(=O)OC[C@H]1O[C@@H](c2ccc(Cl)c(Cc3ncc(-c4ccco4)s3)c2)[C@H](O)[C@@H](O)[C@@H]1O [Example 160, ((2R,3S,4R,5R,6S)-6-(4-Chloro-3-((5-(furan-2-yl)thiazol-2-yl)methyl)phenyl)-3,4,5-trihydroxytetrahydro-2H-pyran-2-yl)methyl ethyl carbonate]
16 | 18.8 | CCOc1cnc(Cc2cc([C@@H]3O[C@H](CO)[C@@H](O)[C@H](O)[C@H]3O)ccc2Cl)s1 [Example 21, (2S,3R,4R,5S,6R)-2-(4-Chloro-3-((5-ethoxythiazol-2-yl)methyl)phenyl)-6-(hydroxymethyl)-tetrahydro-2H-pyran-3,4,5-triol]
17 | 6.08 | COc1cc(Cl)c(Cc2ncc(-c3ccc(F)cc3)s2)cc1[C@@H]1O[C@H](CO)[C@@H](O)[C@H](O)[C@H]1O [Example 74, (2S,3R,4R,5S,6R)-2-(4-Chloro-5-((5-(4-fluorophenyl)thiazol-2-yl)methyl)-2-methoxyphenyl)-6-(hydroxymethyl)tetrahydro-2H-pyran-3,4,5-triol]
18 | 4.69 | C/C=C(\C)c1cnc(Cc2cc([C@@H]3O[C@H](CO)[C@@H](O)[C@H](O)[C@H]3O)ccc2Cl)s1 [Example 18, (2S,3R,4R,5S,6R,E)-2-(3-((5-(but-2-en-2-yl)thiazol-2-yl)methyl)-4-chlorophenyl)-6-(hydroxymethyl)-tetrahydro-2H-pyran-3,4,5-triol]
19 | 4.48 | CCCCCCc1cnc(Cc2cc([C@@H]3O[C@H](CO)[C@@H](O)[C@H](O)[C@H]3O)c(OC)cc2Cl)s1 [Example 75, (2S,3R,4R,5S,6R)-2-(4-Chloro-5-((5-hexylthiazol-2-yl)methyl)-2-methoxyphenyl)-6-(hydroxymethyl)tetrahydro-2H-pyran-3,4,5-triol]
20 | 2.01 | COc1cc(Cl)c(Cc2ncc(-c3ccccc3)s2)cc1[C@@H]1O[C@H](CO)[C@@H](O)[C@H](O)[C@H]1O [Example 73, (2S,3R,4R,5S,6R)-2-(4-Chloro-2-methoxy-5-((5-phenylthiazol-2-yl)methyl)phenyl)-6-(hydroxymethyl)tetrahydro-2H-pyran-3,4,5-triol]
21 | 1.29 | COc1cc(Cl)c(Cc2ncc(-c3ccsc3)s2)cc1[C@@H]1O[C@H](CO)[C@@H](O)[C@H](O)[C@H]1O [Example 72, (2S,3R,4R,5S,6R)-2-(4-Chloro-2-methoxy-5-((5-(thiophen-3-yl)thiazol-2-yl)methyl)phenyl)-6-(hydroxymethyl)tetrahydro-2,1-pyran-3,4,5-triol]

Source: US8586550B2, “Thiazole derivatives as SGLT2 inhibitors and pharmaceutical composition comprising same” (Green Cross Corporation, priority 2010, dated 2013)
